Where two headings read alike, the source gives them in different places.

What all share (experiment): Glasshouse assay for herbicidal activity (pre- and post-emergence), percentage phytotoxicity
Holding throughout (assay type): in vivo

Test [1] relates to Alopecurus myosuroides (ALOMY). To be noted: Alopecurus myosuroides. As for the experimental part: (§1) Test—Glasshouse Assay for Herbicidal Activity
(§2) Seeds of a variety of monocotyledonous and dicotyledonous test plants are sown in standard soil in pots. The plants are cultivated for one day (for pre-emergence (PRE)) or for about 12 days (for post-emergence (POST)) under controlled conditions in a glasshouse (warm climate species at 24/18° C., cool climate species at 20/16° C., both at day/night; 16 hours light; 65% humidity).
(§3) The test plants are then grown on, in a glasshouse (greenhouse) under controlled conditions (warm climate species at 24/18° C., cool climate species at 20/16° C., both at day/night; 16 hours light; 65% humidity) and are watered twice daily. 15 days after application of the test herbicide (15 DAA) (for post-emergence), and 20 days after application of the test herbicide (20 DAA) (for pre-emergence), the test plants are evaluated visually, and an assessed percentage phytotoxicity score is given for each herbicidal application on each plant species (with 100%=total damage to plant; 0%=no damage to plant).
(§4) The plant species tested are as follows: Alopecurus myosuroides (ALOMY), Avena fatua (AVEFA), Lolium perenne (LOLPE), Echinochloa crus-galli (ECHCG).

The subject of the next test is Avena fatua (AVEFA). The following applies: Avena fatua. The protocol: as §1, §2, §3, §4
In test [2] the test system is Echinochloa crus-galli (ECHCG). To be noted: Echinochloa crus-galli. As for the experimental part:
as §1, §2, §3, §4

In another test the test system is Lolium perenne (LOLPE). The following applies: Lolium perenne. The protocol: as §1, §2, §3, §4
Setting [3] is: post-emergence, 360 h, Rate 250 g/ha, post-emergence, assessed visually 15 DAA, 100%=total damage, 0%=no damage, read-out: Post-emergence herbicidal activity (percentage phytotoxicity) ALOMY POST.
[4] abbreviates: pre-emergence, 480 h, Rate 250 g/ha, pre-emergence, assessed visually 20 DAA, 100%=total damage, 0%=no damage, read-out: Pre-emergence herbicidal activity (percentage phytotoxicity) ALOMY PRE.
[5] abbreviates: post-emergence, 360 h, Rate 250 g/ha, post-emergence, assessed visually 15 DAA, 100%=total damage, 0%=no damage, read-out: Post-emergence herbicidal activity (percentage phytotoxicity) AVEFA POST.
The mark [6] stands for this setting: pre-emergence, 480 h, Rate 250 g/ha, pre-emergence, assessed visually 20 DAA, 100%=total damage, 0%=no damage, read-out: Pre-emergence herbicidal activity (percentage phytotoxicity) AVEFA PRE.
Setting [7] is: post-emergence, 360 h, Rate 250 g/ha, post-emergence, assessed visually 15 DAA, 100%=total damage, 0%=no damage, read-out: Post-emergence herbicidal activity (percentage phytotoxicity) ECHCG POST.
Setting [8] is: pre-emergence, 480 h, Rate 250 g/ha, pre-emergence, assessed visually 20 DAA, 100%=total damage, 0%=no damage, read-out: Pre-emergence herbicidal activity (percentage phytotoxicity) ECHCG PRE.
Where [9] appears, read: post-emergence, 360 h, Rate 250 g/ha, post-emergence, assessed visually 15 DAA, 100%=total damage, 0%=no damage, read-out: Post-emergence herbicidal activity (percentage phytotoxicity) LOLPE POST.
Where [10] appears, read: pre-emergence, 480 h, Rate 250 g/ha, pre-emergence, assessed visually 20 DAA, 100%=total damage, 0%=no damage, read-out: Pre-emergence herbicidal activity (percentage phytotoxicity) LOLPE PRE.
[11] abbreviates: post-emergence, 360 h, POST-emergence, rate 250 g/ha, visual score 15 DAA (100%=total damage, 0%=no damage), read-out: Post-emergence herbicidal activity (percentage phytotoxicity) ALOMY POST.
Setting [12] is: pre-emergence, 480 h, PRE-emergence, rate 250 g/ha, visual score 20 DAA (100%=total damage, 0%=no damage), read-out: Pre-emergence herbicidal activity (percentage phytotoxicity) ALOMY PRE.
The mark [13] stands for this setting: post-emergence, 360 h, POST-emergence, rate 250 g/ha, visual score 15 DAA (100%=total damage, 0%=no damage), read-out: Post-emergence herbicidal activity (percentage phytotoxicity) AVEFA POST.
Setting [14] is: pre-emergence, 480 h, PRE-emergence, rate 250 g/ha, visual score 20 DAA (100%=total damage, 0%=no damage), read-out: Pre-emergence herbicidal activity (percentage phytotoxicity) AVEFA PRE.
Setting [15] is: post-emergence, 360 h, POST-emergence, rate 250 g/ha, visual score 15 DAA (100%=total damage, 0%=no damage), read-out: Post-emergence herbicidal activity (percentage phytotoxicity) ECHCG POST.
[16] abbreviates: pre-emergence, 480 h, PRE-emergence, rate 250 g/ha, visual score 20 DAA (100%=total damage, 0%=no damage), read-out: Pre-emergence herbicidal activity (percentage phytotoxicity) ECHCG PRE.
Setting [17] is: post-emergence, 360 h, POST-emergence, rate 250 g/ha, visual score 15 DAA (100%=total damage, 0%=no damage), read-out: Post-emergence herbicidal activity (percentage phytotoxicity) LOLPE POST.
Where [18] appears, read: pre-emergence, 480 h, PRE-emergence, rate 250 g/ha, visual score 20 DAA (100%=total damage, 0%=no damage), read-out: Pre-emergence herbicidal activity (percentage phytotoxicity) LOLPE PRE.

Regarding `Cc1cc(-c2ccc(F)cn2)cc(C)c1C1C(=O)CC(CC(=O)NCc2cccc(F)c2)C1=O` (centres unmarked) [Compound B383], the pest or weed control at 250 g/ha in test [1] (post-emergence, 360 h, Rate 250 g/ha, post-emergence, visual assessment 15 DAA, 100%=total damage, 0%=no damage, read-out: Post-emergence herbicidal activity (percentage phytotoxicity) ALOMY POST) is 100%; in test [1] (pre-emergence, 480 h, Rate 250 g/ha, pre-emergence, visual assessment 20 DAA, 100%=total damage, 0%=no damage, read-out: Pre-emergence herbicidal activity (percentage phytotoxicity) ALOMY PRE), 90%; with Avena fatua (AVEFA) (post-emergence, 360 h, Rate 250 g/ha, post-emergence, visual assessment 15 DAA, 100%=total damage, 0%=no damage, read-out: Post-emergence herbicidal activity (percentage phytotoxicity) AVEFA POST), 100%; with Avena fatua (AVEFA) (pre-emergence, 480 h, Rate 250 g/ha, pre-emergence, visual assessment 20 DAA, 100%=total damage, 0%=no damage, read-out: Pre-emergence herbicidal activity (percentage phytotoxicity) AVEFA PRE) it was 90%; in test [2] (post-emergence, 360 h, Rate 250 g/ha, post-emergence, visual assessment 15 DAA, 100%=total damage, 0%=no damage, read-out: Post-emergence herbicidal activity (percentage phytotoxicity) ECHCG POST), 90%; in test [2] (pre-emergence, 480 h, Rate 250 g/ha, pre-emergence, visual assessment 20 DAA, 100%=total damage, 0%=no damage, read-out: Pre-emergence herbicidal activity (percentage phytotoxicity) ECHCG PRE) it was 100%. The pest or weed control at 250 g/ha amounted to 90% with Lolium perenne (LOLPE) (post-emergence, 360 h, Rate 250 g/ha, post-emergence, visual assessment 15 DAA, 100%=total damage, 0%=no damage, read-out: Post-emergence herbicidal activity (percentage phytotoxicity) LOLPE POST) and 100% in the test on Lolium perenne (LOLPE) (pre-emergence, 480 h, Rate 250 g/ha, pre-emergence, visual assessment 20 DAA, 100%=total damage, 0%=no damage, read-out: Pre-emergence herbicidal activity (percentage phytotoxicity) LOLPE PRE).

Regarding `CC#Cc1cc(C)c(C2C(=O)CC(CC(=O)NCCOC)C2=O)c(CC)c1` (centres unmarked) [Compound A49], the pest or weed control at 250 g/ha (in test [1] (setting [3]); in test [1] (setting [4]); in the test with Avena fatua (AVEFA) (setting [5]); in the test on Avena fatua (AVEFA) (setting [6]); in test [2] (setting [7]); in test [2] (setting [8])) was 100% each time. The pest or weed control at 250 g/ha with Lolium perenne (LOLPE) (setting [9]) and with Lolium perenne (LOLPE) (setting [10]) was 100% in each case.

Consider `Cc1cc(-c2ncc(F)cc2F)cc(C)c1C1C(=O)CC(CC(=O)NCc2cccc(F)c2)C1=O` (centres unmarked) [Compound B70], for which the pest or weed control at 250 g/ha in test [1] (post-emergence, 360 h, 250 g/ha, post-emergence, 15 DAA, visual assessment (100%=total damage, 0%=no damage), read-out: Post-emergence herbicidal activity (percentage phytotoxicity) ALOMY POST) is 100%; in test [1] (pre-emergence, 480 h, 250 g/ha, pre-emergence, 20 DAA, visual assessment (100%=total damage, 0%=no damage), read-out: Pre-emergence herbicidal activity (percentage phytotoxicity) ALOMY PRE), 80%; in the test on Avena fatua (AVEFA) (post-emergence, 360 h, 250 g/ha, post-emergence, 15 DAA, visual assessment (100%=total damage, 0%=no damage), read-out: Post-emergence herbicidal activity (percentage phytotoxicity) AVEFA POST), 100%; in the test with Avena fatua (AVEFA) (pre-emergence, 480 h, 250 g/ha, pre-emergence, 20 DAA, visual assessment (100%=total damage, 0%=no damage), read-out: Pre-emergence herbicidal activity (percentage phytotoxicity) AVEFA PRE), 80%; in test [2] (post-emergence, 360 h, 250 g/ha, post-emergence, 15 DAA, visual assessment (100%=total damage, 0%=no damage), read-out: Post-emergence herbicidal activity (percentage phytotoxicity) ECHCG POST), 100%; in test [2] (pre-emergence, 480 h, 250 g/ha, pre-emergence, 20 DAA, visual assessment (100%=total damage, 0%=no damage), read-out: Pre-emergence herbicidal activity (percentage phytotoxicity) ECHCG PRE) it was 100%. In addition, the pest or weed control at 250 g/ha in the test with Lolium perenne (LOLPE) (post-emergence, 360 h, 250 g/ha, post-emergence, 15 DAA, visual assessment (100%=total damage, 0%=no damage), read-out: Post-emergence herbicidal activity (percentage phytotoxicity) LOLPE POST) was determined as 100%; with Lolium perenne (LOLPE) (pre-emergence, 480 h, 250 g/ha, pre-emergence, 20 DAA, visual assessment (100%=total damage, 0%=no damage), read-out: Pre-emergence herbicidal activity (percentage phytotoxicity) LOLPE PRE) it was 90%.

For `C=CCNC(=O)CC1CC(=O)C(c2c(C)cc(-n3cc(Cl)cn3)cc2C)C1=O` (centres unmarked) [Compound B226], the pest or weed control at 250 g/ha in test [1] (setting [11]) came out at 100%; in test [1] (setting [12]) it was 100%; with Avena fatua (AVEFA) (setting [13]) it was 90%; in the test with Avena fatua (AVEFA) (setting [14]), 90%; in test [2] (setting [15]) it was 100%; in test [2] (setting [16]), 100%. The pest or weed control at 250 g/ha in the test with Lolium perenne (LOLPE) (setting [17]) amounted to 90%; in the test with Lolium perenne (LOLPE) (setting [18]), 80%.

Take `C/C=C/c1cc(C)c(C2C(=O)CC(CC(=O)NCc3ccccc3)C2=O)c(CC)c1` (centres unmarked) [Compound B190]: the pest or weed control at 250 g/ha in test [1] (setting [11]) amounted to 70%; in test [1] (setting [12]) it was 60%; with Avena fatua (AVEFA) (setting [13]) it was 90%; in the test on Avena fatua (AVEFA) (setting [14]), 40%; in test [2] (setting [15]), 100%; in test [2] (setting [16]) it was 80%. Moreover, the pest or weed control at 250 g/ha was determined as 80% with Lolium perenne (LOLPE) (setting [17]) and 70% in the test with Lolium perenne (LOLPE) (setting [18]).

`C=C(C)CNC(=O)CC1CC(=O)C(c2c(C)cc(-c3ncc(F)cc3F)cc2C)C1=O` (centres unmarked) [Compound B200]: the pest or weed control at 250 g/ha was 100% in test [1] (setting [11]); 100% in test [1] (setting [12]); 100% in the test with Avena fatua (AVEFA) (setting [13]); 90% with Avena fatua (AVEFA) (setting [14]); 100% in test [2] (setting [15]); 100% in test [2] (setting [16]). The pest or weed control at 250 g/ha in the test on Lolium perenne (LOLPE) (setting [17]) and in the test on Lolium perenne (LOLPE) (setting [18]) was 100% throughout.

As for `Cc1cc(C)c(C2C(=O)CC(CC(=O)NC3(C#N)CC3)C2=O)c(C)c1` (centres unmarked) [Compound A82], the pest or weed control at 250 g/ha in test [1] (setting [3]) is 10%; with Avena fatua (AVEFA) (setting [5]) it was 10%; in test [2] (setting [7]) it was 30%; with Lolium perenne (LOLPE) (setting [9]) it was 30%.

On to `Cc1cc(-c2ncc(F)cc2F)cc(C)c1C1C(=O)CC(CC(=O)N(C)C)C1=O` (centres unmarked) [Compound B265], for which the pest or weed control at 250 g/ha (in test [1] (setting [11]); in test [1] (setting [12]); in the test with Avena fatua (AVEFA) (setting [13]); in the test on Avena fatua (AVEFA) (setting [14]); in test [2] (setting [15]); in test [2] (setting [16])) was 100% each time. Moreover, the pest or weed control at 250 g/ha in the test with Lolium perenne (LOLPE) (setting [17]) and in the test with Lolium perenne (LOLPE) (setting [18]) was 100% in each case.

In the case of `Cc1cc(C)c(C2C(=O)CC(CC(=O)NC(C)c3ccc(F)cc3)C2=O)c(C)c1` (centres unmarked) [Compound A93], the pest or weed control at 250 g/ha in test [1] (setting [3]) was 100%; in test [1] (setting [4]), 90%; with Avena fatua (AVEFA) (setting [5]) it was 40%; in the test with Avena fatua (AVEFA) (setting [6]), 20%; in test [2] (setting [7]), 70%; in test [2] (setting [8]), 60%. Also, the pest or weed control at 250 g/ha with Lolium perenne (LOLPE) (setting [9]) turned out to be 80%; with Lolium perenne (LOLPE) (setting [10]), 90%.
